Measurements from PubChem BioAssay (NCI).
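Tested at 5 concentrations; 48 h exposure; 96-well plates; endpoints linearly interpolated, else capped at highest concentration. At the GI50, growth is halved. TGI: total growth inhibition.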

Experiments:
Test in all cases: DTP human tumour cell line panel, 48 h
786-0 renal = system: 786-0 renal
A498 renal = system: A498 renal
A549 NSCLC = system: A549 NSCLC
ACHN renal = system: ACHN renal
CAKI-1 renal = system: CAKI-1 renal
CCRF-CEM leukemia = system: CCRF-CEM leukemia
DLD-1 colon = system: DLD-1 colon
DMS 273 small cell lung = system: DMS 273 small cell lung
EKVX NSCLC = system: EKVX NSCLC
HCC-2998 colon = system: HCC-2998 colon
HCT-116 colon = system: HCT-116 colon
HCT-15 colon = system: HCT-15 colon
HL-60(TB) leukemia = system: HL-60(TB) leukemia
HOP-62 NSCLC = system: HOP-62 NSCLC
HOP-92 NSCLC = system: HOP-92 NSCLC
HT29 colon = system: HT29 colon
IGROV1 ovarian = system: IGROV1 ovarian
K-562 leukemia = system: K-562 leukemia
KM12 colon = system: KM12 colon
KM20L2 colon = system: KM20L2 colon
LOX IMVI melanoma = system: LOX IMVI melanoma
M14 melanoma = system: M14 melanoma
MALME-3M melanoma = system: MALME-3M melanoma
MOLT-4 leukemia = system: MOLT-4 leukemia
NCI-H226 lung = system: NCI-H226 lung
NCI-H23 lung = system: NCI-H23 lung
NCI-H460 lung = system: NCI-H460 lung
NCI-H522 lung = system: NCI-H522 lung
OVCAR-3 ovarian = system: OVCAR-3 ovarian
OVCAR-4 ovarian = system: OVCAR-4 ovarian
OVCAR-5 ovarian = system: OVCAR-5 ovarian
OVCAR-8 ovarian = system: OVCAR-8 ovarian
RPMI-8226 leukemia = system: RPMI-8226 leukemia
RXF 393 renal = system: RXF 393 renal
SF-268 CNS = system: SF-268 CNS
SF-295 CNS = system: SF-295 CNS
SF-539 CNS = system: SF-539 CNS
SK-MEL-2 melanoma = system: SK-MEL-2 melanoma
SK-MEL-28 melanoma = system: SK-MEL-28 melanoma
SK-MEL-5 melanoma = system: SK-MEL-5 melanoma
SK-OV-3 ovarian = system: SK-OV-3 ovarian
SN12C renal = system: SN12C renal
SNB-19 CNS = system: SNB-19 CNS
SNB-75 CNS = system: SNB-75 CNS
SNB-78 CNS = system: SNB-78 CNS
SW-620 colon = system: SW-620 colon
TK-10 renal = system: TK-10 renal
U251 CNS = system: U251 CNS
UACC-257 melanoma = system: UACC-257 melanoma
UACC-62 melanoma = system: UACC-62 melanoma
UO-31 renal = system: UO-31 renal
COLO 205 colon = system: COLO 205 colon
DMS 114 small cell lung = system: DMS 114 small cell lung
HOP-18 NSCLC = system: HOP-18 NSCLC
M19-MEL melanoma = system: M19-MEL melanoma
SR leukemia = system: SR leukemia
XF 498 CNS = system: XF 498 CNS
LXFL 529 NSCLC = system: LXFL 529 NSCLC

Compound: O=c1cccccc1[O-].O=c1cccccc1[O-].O=c1cccccc1[O-].[Dy+3]
- TGI (786-0 renal): > 100 µM
- GI50 (A498 renal): 80.7 µM
- TGI (A498 renal): > 100 µM
- TGI (A549 NSCLC): > 100 µM
- TGI (ACHN renal): > 100 µM
- TGI (CAKI-1 renal): > 100 µM
- TGI (CCRF-CEM leukemia): 55.2 µM
- GI50 (DLD-1 colon): 16.9 µM
- TGI (DLD-1 colon): > 100 µM
- GI50 (DMS 273 small cell lung): 9.28 µM
- TGI (DMS 273 small cell lung): > 100 µM
- TGI (EKVX NSCLC): > 100 µM
- TGI (HCC-2998 colon): > 100 µM
- TGI (HCT-116 colon): 41.4 µM
- TGI (HCT-15 colon): > 100 µM
- TGI (HL-60(TB) leukemia): 54.3 µM
- GI50 (HOP-62 NSCLC): 33 µM
- TGI (HOP-62 NSCLC): 99.9 µM
- TGI (HOP-92 NSCLC): > 100 µM
- TGI (HT29 colon): > 100 µM
- TGI (IGROV1 ovarian): > 100 µM
- TGI (K-562 leukemia): > 100 µM
- TGI (KM12 colon): > 100 µM
- GI50 (KM20L2 colon): 18.4 µM
- TGI (KM20L2 colon): > 100 µM
- TGI (LOX IMVI melanoma): > 100 µM
- TGI (M14 melanoma): > 100 µM
- TGI (MALME-3M melanoma): > 100 µM
- TGI (MOLT-4 leukemia): 46.2 µM
- TGI (NCI-H226 lung): > 100 µM
- TGI (NCI-H23 lung): 66.4 µM
- TGI (NCI-H460 lung): > 100 µM
- TGI (NCI-H522 lung): > 100 µM
- TGI (OVCAR-3 ovarian): 41.1 µM
- TGI (OVCAR-4 ovarian): > 100 µM
- TGI (OVCAR-5 ovarian): > 100 µM
- TGI (OVCAR-8 ovarian): 97.6 µM
- TGI (RPMI-8226 leukemia): 76.2 µM
- TGI (RXF 393 renal): 79 µM
- TGI (SF-268 CNS): > 100 µM
- TGI (SF-295 CNS): > 100 µM
- GI50 (SF-539 CNS): 17.9 µM
- TGI (SF-539 CNS): 78 µM
- TGI (SK-MEL-2 melanoma): > 100 µM
- TGI (SK-MEL-28 melanoma): > 100 µM
- TGI (SK-MEL-5 melanoma): 72.3 µM
- TGI (SK-OV-3 ovarian): 98.3 µM
- GI50 (SN12C renal): 17.7 µM
- TGI (SN12C renal): > 100 µM
- TGI (SNB-19 CNS): > 100 µM
- TGI (SNB-75 CNS): 52.1 µM
- GI50 (SNB-78 CNS): 15.3 µM
- TGI (SNB-78 CNS): > 100 µM
- TGI (SW-620 colon): > 100 µM
- TGI (TK-10 renal): > 100 µM
- GI50 (U251 CNS): 24.8 µM
- TGI (U251 CNS): > 100 µM
- TGI (UACC-257 melanoma): > 100 µM
- TGI (UACC-62 melanoma): > 100 µM
- TGI (UO-31 renal): > 100 µM

Compound: CCOC(=O)Oc1ccc2[nH]c3c(C)cc(N)c(C)c3c2c1
- TGI (786-0 renal): > 100 µM
- TGI (A549 NSCLC): > 100 µM
- TGI (ACHN renal): > 100 µM
- TGI (CAKI-1 renal): > 100 µM
- TGI (CCRF-CEM leukemia): > 100 µM
- TGI (COLO 205 colon): > 100 µM
- TGI (DLD-1 colon): > 100 µM
- TGI (DMS 114 small cell lung): > 100 µM
- TGI (DMS 273 small cell lung): > 100 µM
- TGI (EKVX NSCLC): > 100 µM
- TGI (HCC-2998 colon): > 100 µM
- TGI (HCT-116 colon): > 100 µM
- TGI (HCT-15 colon): > 100 µM
- TGI (HL-60(TB) leukemia): > 100 µM
- TGI (HOP-18 NSCLC): > 100 µM
- TGI (HOP-62 NSCLC): > 100 µM
- TGI (HT29 colon): > 100 µM
- TGI (K-562 leukemia): > 100 µM
- TGI (KM12 colon): > 100 µM
- TGI (LOX IMVI melanoma): > 100 µM
- TGI (M14 melanoma): > 100 µM
- TGI (M19-MEL melanoma): > 100 µM
- TGI (MALME-3M melanoma): > 100 µM
- TGI (MOLT-4 leukemia): > 100 µM
- TGI (NCI-H226 lung): > 100 µM
- TGI (NCI-H23 lung): > 100 µM
- TGI (NCI-H460 lung): > 100 µM
- TGI (NCI-H522 lung): > 100 µM
- TGI (OVCAR-3 ovarian): > 100 µM
- TGI (OVCAR-4 ovarian): > 100 µM
- TGI (OVCAR-5 ovarian): > 100 µM
- TGI (OVCAR-8 ovarian): > 100 µM
- TGI (RPMI-8226 leukemia): > 100 µM
- TGI (SF-268 CNS): > 100 µM
- TGI (SF-295 CNS): > 100 µM
- TGI (SF-539 CNS): > 100 µM
- TGI (SK-MEL-2 melanoma): > 100 µM
- TGI (SK-MEL-28 melanoma): > 100 µM
- TGI (SK-MEL-5 melanoma): > 100 µM
- TGI (SN12C renal): > 100 µM
- TGI (SNB-19 CNS): > 100 µM
- TGI (SNB-75 CNS): > 100 µM
- TGI (SNB-78 CNS): > 100 µM
- TGI (SR leukemia): > 100 µM
- TGI (SW-620 colon): > 100 µM
- TGI (TK-10 renal): > 100 µM
- TGI (UACC-257 melanoma): > 100 µM
- TGI (UO-31 renal): > 100 µM
- TGI (XF 498 CNS): > 100 µM

Compound: Cc1[nH]n(C(=O)c2ccc(Cl)cc2)c(=O)c1/C=C1\C(O)=CC(=O)c2ccccc21
- TGI (786-0 renal): > 100 µM
- TGI (A498 renal): > 100 µM
- TGI (A549 NSCLC): > 100 µM
- TGI (ACHN renal): > 100 µM
- TGI (CAKI-1 renal): > 100 µM
- TGI (CCRF-CEM leukemia): > 100 µM
- TGI (COLO 205 colon): > 100 µM
- TGI (DLD-1 colon): > 100 µM
- TGI (DMS 114 small cell lung): > 100 µM
- TGI (EKVX NSCLC): > 100 µM
- TGI (HCC-2998 colon): > 100 µM
- TGI (HCT-116 colon): > 100 µM
- TGI (HL-60(TB) leukemia): > 100 µM
- TGI (HOP-62 NSCLC): > 100 µM
- TGI (HOP-92 NSCLC): > 100 µM
- TGI (HT29 colon): > 100 µM
- TGI (IGROV1 ovarian): > 100 µM
- TGI (K-562 leukemia): > 100 µM
- TGI (KM12 colon): > 100 µM
- TGI (KM20L2 colon): > 100 µM
- TGI (LOX IMVI melanoma): > 100 µM
- TGI (LXFL 529 NSCLC): > 100 µM
- TGI (M14 melanoma): > 100 µM
- TGI (M19-MEL melanoma): > 100 µM
- TGI (MALME-3M melanoma): > 100 µM
- TGI (MOLT-4 leukemia): > 100 µM
- TGI (NCI-H23 lung): > 100 µM
- TGI (NCI-H460 lung): > 100 µM
- TGI (NCI-H522 lung): > 100 µM
- TGI (OVCAR-3 ovarian): > 100 µM
- TGI (OVCAR-4 ovarian): > 100 µM
- TGI (OVCAR-5 ovarian): > 100 µM
- TGI (OVCAR-8 ovarian): > 100 µM
- TGI (RPMI-8226 leukemia): > 100 µM
- TGI (RXF 393 renal): > 100 µM
- TGI (SF-268 CNS): > 100 µM
- TGI (SF-295 CNS): > 100 µM
- TGI (SF-539 CNS): > 100 µM
- TGI (SK-MEL-2 melanoma): > 100 µM
- TGI (SK-MEL-28 melanoma): > 100 µM
- TGI (SK-MEL-5 melanoma): > 100 µM
- TGI (SK-OV-3 ovarian): > 100 µM
- TGI (SN12C renal): > 100 µM
- TGI (SNB-19 CNS): > 100 µM
- TGI (SNB-78 CNS): > 100 µM
- TGI (SW-620 colon): > 100 µM
- TGI (TK-10 renal): > 100 µM
- TGI (U251 CNS): > 100 µM
- TGI (UACC-257 melanoma): > 100 µM
- TGI (UACC-62 melanoma): > 100 µM
- TGI (UO-31 renal): > 100 µM
- TGI (XF 498 CNS): > 100 µM
